Holding throughout (experiment): growth of human tumour cells (NCI), 48 h
In assay [1] the test system is 786-0 renal.
For assay [2], the system named is A498 renal.
The subject of assay [3] is A549 NSCLC.
Assay [4] relates to ACHN renal.
Assay [5] has as its system HCT-116 colon.
The subject of assay [6] is HL-60(TB) leukemia.
In assay [7] the test system is K-562 leukemia.
Assay [8] concerns LOX IMVI melanoma.
The subject of assay [9] is MDA-MB-231 breast.
Assay [10] concerns NCI/ADR-RES ovarian.
Assay [11] has as its system OVCAR-8 ovarian.
Assay [12] relates to SF-295 CNS.
Assay [13] has as its system SK-MEL-2 melanoma.
The subject of assay [14] is SK-MEL-5 melanoma.
In assay [15] the test system is SK-OV-3 ovarian.
Assay [16] deals with SN12C renal.
The test system of assay [17] is SNB-19 CNS.
Assay [18] relates to UACC-62 melanoma.
The test system of assay [19] is NCI-H226 lung.
In assay [20] the test system is SK-MEL-28 melanoma.

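Values below derive from 48-hour exposures of cells grown in 96-well plates, with endpoints linearly interpolated between the two concentrations bracketing the appropriate inhibition level. At the TGI there is no net growth.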

As to `CC(C)(C)C1CCC2c3c([nH]c4ccccc34)C3C(=O)N(c4ccccc4Cl)C(=O)C3C2C1` (stereo unspecified), the TGI in assay [1] was 27.7 µM; in assay [2], 52.6 µM; in assay [3], 86.5 µM; in [4] it was 70.2 µM; in assay [5], 14.3 µM; in assay [6], 50.5 µM. Also, the TGI is more than 100 µM in [7]; 28.5 µM in [8]; 24.6 µM in assay [9]; 44 µM in assay [10]; 50 µM in assay [11]; 57.2 µM in assay [12]. For the same compound, the TGI in assay [13] was 35 µM; in assay [14], 28.7 µM; in assay [15], more than 100 µM; in [16], 22.7 µM; in assay [17], more than 100 µM; in [18] it was 45.4 µM.
Consider `N#Cc1ccc(-c2nc3c(N)nc(-c4ccccc4)nc3o2)cc1`, for which the TGI in assay [1], in assay [2], in [3], in assay [4], in assay [5] and in assay [6] was more than 100 µM throughout. Moreover, the TGI in assay [7] was more than 100 µM; in assay [8] it was more than 100 µM; in [9], 46.2 µM; in [19], more than 100 µM; in [10], more than 100 µM; in assay [11], more than 100 µM. Further, the TGI in [12], in assay [13], in assay [20], in assay [14], in [16] and in [17] was more than 100 µM each time. The TGI in [18] was more than 100 µM.
Consider `CC(=O)Nc1ccc(C(=O)NN2C(=O)CSC2c2ccc(O)cc2)cc1` (stereo unspecified), for which the TGI in assay [1], in [2], in assay [3], in assay [4], in assay [5] and in [6] was more than 100 µM throughout. In addition, the TGI in assay [7], in [9], in [19], in assay [10], in assay [11] and in assay [12] was more than 100 µM in each case. For the same compound, the TGI in assay [13], in assay [20], in assay [14], in assay [15], in [16] and in [17] was more than 100 µM each time. This compound gave a TGI in [18] of more than 100 µM.
Consider `CCOC(=O)CC1(Cc2ccc(OCc3ccccc3)cc2)C(=O)OC(c2ccccc2)N1C(=O)c1ccccc1` (stereo unspecified), for which the TGI in assay [1], in assay [3], in assay [4], in [5], in assay [6] and in assay [7] was more than 100 µM throughout. Besides, the TGI in assay [8], in assay [9], in assay [19], in assay [10], in assay [11] and in [12] was more than 100 µM each time. Also, the TGI in assay [13], in [20], in assay [14], in assay [15], in assay [16] and in assay [17] was more than 100 µM throughout. In [18], this compound gave a TGI of more than 100 µM.
`Cc1cc(=O)oc2c(CNC(CO)C(=O)O)c(O)ccc12` (stereo unspecified): the TGI in [1], in [3], in assay [4], in assay [5], in assay [6] and in [7] was more than 100 µM throughout. The TGI in assay [8], in assay [9], in assay [19], in assay [10], in [11] and in assay [12] was more than 100 µM throughout. The TGI in [13], in assay [20], in assay [14], in [15], in assay [16] and in [17] was more than 100 µM each time. Also, in [18], the TGI was more than 100 µM.
With `CC(C)(C)c1ccc2c(c1)C#Cc1cc(C(C)(C)C)ccc1OCCCO2`, the TGI in [1], in [2], in assay [3], in assay [4], in assay [5] and in assay [6] was more than 100 µM in each case. In addition, the TGI in [7], in [8], in assay [9], in assay [19], in assay [10] and in [11] was more than 100 µM throughout. For the same compound, the TGI in [12], in [13], in [20], in assay [14], in assay [16] and in [17] was more than 100 µM in each case. The compound also returned a TGI in [18] of more than 100 µM.
Regarding `CC1(C)C2CCC1(C)C(OC(=O)/C=C/C(=O)OC1CC3CCC1(C)C3(C)C)C2` (stereo unspecified), the TGI is more than 100 µM in assay [1]; more than 100 µM in assay [2]; more than 100 µM in [3]; more than 100 µM in [4]; more than 100 µM in [5]; 40.7 µM in assay [6]. Besides, the TGI in [7] is more than 100 µM; in assay [8], 49.9 µM; in assay [9], more than 100 µM; in assay [10] it was more than 100 µM; in [11], more than 100 µM; in assay [12] it was more than 100 µM. Also, the TGI is more than 100 µM in [13]; 40.2 µM in [20]; more than 100 µM in assay [14]; more than 100 µM in assay [16]; more than 100 µM in [17]; more than 100 µM in [18].

(Values after PubChem BioAssay (NCI).)
